Test results published in patent US12384769B2, “Heteroaryl-substituted aminoalkyl azole compounds as pesticides” (Elanco Animal Health GmbH, priority 2019, dated 2025).

Tests used:
Format in all cases: in vivo
Diabrotica balteata = Diabrotica balteata spray test; details: 168 h, wheat seeds, after 7 days, read-out: activity (efficacy, seedlings grown); for pest or weed control at 160 µg/disc, 500 g/ha: 500 g/ha (=160 μg/well)
How it was run: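 Germinated wheat seedlings (5 per well, on agar) sprayed with compound in acetone/DMF with emulsifier-containing water, then infested with 10–20 Diabrotica balteata larvae. Efficacy (%) scored after 7 days from seedling growth: 100% = growth as untreated uninfested control, 0% = no seedlings grown.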

[1] = tested on: Culex quinquefasciatus strain P00; experiment: Culex quinquefasciatus test (CULXFA surface treatment & contact assay); details: surface concentration 20 mg/m^2, glazed tile, 30 minutes exposure, 24 hours after contact, read-out: efficacy (mortality)
Description: Culex quinquefasciatus Test (CULXFA Surface Treatment & Contact Assay)
(§1) Solvent: Aceton+2000 ppm rapeseed oil methyl ester (RME)
In order to produce a sufficient, active ingredient containing solution it is necessary to solve the test compound in the solvent-mix (acetone at 2 mg/mL/RME 2 000 ppm). This solution is pipetted onto a glazed tile and after evaporation of the acetone, adult mosquitoes of the species Culex quinquefasciatus strain P00 are placed onto the dried surface. The exposure time is 30 minutes.
(§2) Mortality in percent (%) is determined 24 hours after contact of the insects to the treated surface. 100% mortality means that all tested insects are dead, whereas 0% means that no insect died.

[2] = tested on: Aedes aegypti strain MONHEIM; experiment: Aedes aegypti test (AEDSAE surface treatment & contact assay); details: 30 minutes exposure, 24 hours after contact, read-out: efficacy (mortality); for mortality at 20 mg/m2: surface concentration 20 mg/m^2, glazed tile
Description: Aedes aegypti Test (AEDSAE Surface Treatment & Contact Assay)
as §1
In order to produce a sufficient, active ingredient containing solution it is necessary to solve the test compound in the solvent-mix (acetone at 2 mg/mL/RME 2000 ppm). This solution is pipetted onto a glazed tile and after evaporation of the acetone, adult mosquitoes of the species Aedes aegypti strain MONHEIM are placed onto the dried surface. The exposure time is 30 minutes.
as §2

Spodoptera frugiperda = Spodoptera frugiperda spray test; details: in Zea mays, 168 h, read-out: activity (mortality)
How it was run: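 Compound in acetone/DMF, diluted in water with 1000 ppm alkylarylpolyglycol ether emulsifier, sprayed on maize leaf sections. Dried leaves infested with fall armyworm larvae; % mortality after 7 days (100% = all killed, 0% = none).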

Myzus persicae [3] = experiment: Myzus persicae oral test; details: 120 h, after 5 days
Description: Solvent: 100 parts by weight acetone
Afterwards the plates are sealed with parafilm through which a mixed population of the green peach aphid (Myzus persicae) can suck on the compound preparation.
(§3) After 5 days mortality in % is determined. 100% means all aphids have been killed and 0% means none of the aphids have been killed.

Ctenocephalides felis [4] = experiment: Ctenocephalides felis in-vitro contact test, adult cat flea; details: 5 μg/cm^2 (=500 g/ha), after 48 hours, read-out: activity (efficacy, fleas dead or moribund)
How it was run: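 Acetone solutions coated onto inner walls of glass tubes; 900 ppm gives 5 μg/cm^2. After drying, 5-10 adult Ctenocephalides felis per tube held 48 h at room temperature. Fleas then placed on 45-50° C. plate for up to 5 min; those unable to climb away scored dead or moribund, efficacy as % dead/moribund.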

[5] = tested on: Anopheles funestus strain FUMOZ-R; experiment: Anopheles funestus test (ANPHFU surface treatment & contact assay); details: 30 minutes exposure, 24 hours after contact, read-out: efficacy (mortality); for mortality at 20 mg/m2: surface concentration 20 mg/m^2, glazed tile
Description: Anopheles funestus Test (ANPHFU Surface Treatment & Contact Assay)
as §1
In order to produce a sufficient, active ingredient containing solution it is necessary to solve the test compound in the solvent-mix (acetone at 2 mg/mL/RME 2000 ppm). This solution is pipetted onto a glazed tile and after evaporation of the acetone, adult mosquitoes of the species Anopheles funestus strain FUMOZ-R (Hunt et al., Med. Vet. Entomol. 2005 September; 19(3): 271-275) are placed onto the dried surface. The exposure time is 30 minutes.
as §2

[6] = tested on: Rhipicephalus microplus (strain Parkhurst, resistant against synthetic pyrethroids); experiment: Rhipicephalus microplus in-vitro contact test, larval cattle tick (BOOPMI Contact); details: 5 μg/cm^2 (=500 g/ha), after 48 hours, read-out: activity (efficacy, larvae dead or moribund)
How it was run: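 Glass tubes coated with compound in acetone (900 ppm giving 5 μg/cm²), dried, then loaded with 20-50 pyrethroid-resistant Parkhurst larvae and held at 27 °C, 85% RH. After 48 h negative geotaxis is scored; efficacy in % dead or moribund larvae.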

Ctenocephalides felis [7] = experiment: Ctenocephalides felis oral test (CTECFE); details: 48 h, 100 ppm in cattle blood, after 2 days
How it was run: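 About 20 adult unfed fleas fed through parafilm on cattle blood held at 37° C and dosed with compound from a DMSO concentrate; flea chamber at room temperature. Percent mortality scored after 2 days.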

Boophilus microplus = Boophilus microplus injection test (BOOPMI Injection); details: Rhipicephalus microplus, 168 h, injection into adult engorged female ticks, egg deposition after 7 days, read-out: activity (efficacy, infertile eggs); for pest or weed control at 0.004 mg: 4 μg/animal; for pest or weed control at 0.02 mg: 20 μg/animal
How it was run: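 Adult engorged female ticks (5 per group) injected into the abdomen with 1 μL compound in DMSO, then held in a climate chamber. Fertile egg deposition scored after 7 days, with unclear eggs kept until hatching (~42 days). Efficacy 100% = all eggs infertile, 0% = all fertile.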

Tetranychus urticae = Tetranychus urticae spray test OP-resistant; details: foliar, 144 h, French bean leaf disks, after 6 days
Description: Tetranychus urticae—Spray Test OP-Resistant
(§4) Solvent: 78.0 parts by weight acetone • 1.5 parts by weight dimethylformamide
(§5) Emulsifier: alkylarylpolyglycol ether
(§6) To produce a suitable preparation of active compound, 1 part by weight of active compound is mixed with the stated amount of solvents and is diluted with water, containing an emulsifier concentration of 1000 ppm, to the desired concentration. Further test concentrations are prepared by dilution with emulsifier containing water.
French bean (Phaseolus vulgaris) leaf disks infected with all instars of the two spotted spidermite (Tetranychus urticae) are sprayed with a preparation of the active ingredient of the desired concentration.
After 6 days mortality in % is determined. 100% means all spider mites have been killed and 0% means none of the spider mites have been killed.

Nezara viridula = Nezara viridula spray test; details: 96 h, barley plants, after 4 days
Description: Nezara viridula—Spray Test
Solvent: 78.0 parts by weight of acetone • • 1.5 parts by weight of dimethylformamide
as §5
To produce a suitable preparation of active compound, 1 part by weight of active compound is mixed with the stated amount of solvent, and the concentrate is diluted with water, containing an emulsifier concentration of 1000 ppm, to the desired concentration. Further test concentrations are prepared by dilution with emulsifier containing water.
Barley plants (Hordeum vulgare) are sprayed with a test solution containing the desired concentration of the active ingredient and are infested with larvae of the southern green stink bug (Nezara viridula).
After 4 days, mortality in % is determined. 100% means all the stink bugs have been killed; 0% means none of the stink bugs have been killed.

[8] = tested on: Musca domestica strain WHO-N; experiment: Musca domestica test (MUSCDO surface treatment & contact assay); details: 30 minutes exposure, 24 hours after contact, read-out: efficacy (mortality)
Description: Musca domestica Test (MUSCDO Surface Treatment & Contact Assay)
as §1
In order to produce a sufficient, active ingredient containing solution it is necessary to solve the test compound in the solvent-mix (acetone at 2 mg/mL/RME 2000 ppm). This solution is pipetted onto a glazed tile and after evaporation of the acetone, adult flies of the species Musca domestica strain WHO—N are placed onto the dried surface. The exposure time is 30 minutes.
as §2

Rhipicephalus sanguineus = Rhipicephalus sanguineus in-vitro contact test, adult brown dog ticks (RHIPSA Contact); details: 5 μg/cm^2 (=500 g/ha), after 48 hours, read-out: activity (efficacy, ticks dead or moribund)
How it was run: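 Acetone solution coated onto glass tube walls; 900 ppm gives 5 μg/cm^2. After drying, 5-10 adult ticks per tube kept at room temperature for 48 h, then placed on a 45-50° C heating plate up to 5 min; ticks unable to climb away counted dead or moribund, efficacy as % affected.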

Myzus persicae [9] = experiment: Myzus persicae spray test; details: foliar, 120 h, Chinese cabbage leaf disks, after 5 days
Description: Myzus persicae—Spray Test
as §4, §5, §6
Chinese cabbage (Brassica pekinensis) leaf disks infected with all instars of the green peach aphid (Myzus persicae), are sprayed with a preparation of the active ingredient of the desired concentration.
as §3

Meloidogyne incognita = Meloidogyne incognita test; details: 20 ppm, after 14 days
Description: Meloidogyne incognita—Test
Solvent: 125.0 parts by weight of acetone
To produce a suitable preparation of active compound, 1 part by weight of active compound is mixed with the stated amount of solvent, and the concentrate is diluted with water to the desired concentration.
Vessels are filled with sand, a solution of the active ingredient, a suspension containing eggs and larvae of the southern root-knot nematode (Meloidogyne incognita) and salad seeds. The salad seeds germinate, and the seedlings grow. Galls develop in the roots.
After 14 days the nematicidal activity is determined based on the percentage of gall formation. 100% means no galls were found and 0% means the number of galls found on the roots of the treated plants was equal to that in untreated control plants.

[10] = surface concentration 4 mg/m^2, glazed tile

Compound	pest or weed control at 160 µg/disc, 500 g/ha (Diabrotica balteata) [%]	mortality at 100 g/ha (Spodoptera frugiperda) [%]	mortality at 500 g/ha (Spodoptera frugiperda) [%]	pest or weed control at 5 µg/cm2, 5 µg/cm2 (Ctenocephalides felis [4]) [%]	pest or weed control at 5 µg/cm2 [6] [%]	pest or weed control at 0.004 mg (Boophilus microplus) [%]	pest or weed control at 0.02 mg (Boophilus microplus) [%]	pest or weed control at 100 g/ha (Diabrotica balteata) [%]	other results
C[C@H](Nc1nc2cc(C(F)(F)F)cc(C(F)(F)F)c2o1)c1ncnn1-c1ncccn1 [Example I-005]	100	100	100	100	100	100	100	–	mortality at 20 mg/m2 [1]: 90 to 100%; mortality at 20 mg/m2 [2]: 90 to 100%; mortality at 4 ppm (Myzus persicae [3]): 90%; mortality at 20 mg/m2 [5]: 90 to 100%; mortality at 100 ppm (Ctenocephalides felis [7]): 100%
C[C@H](Nc1nc2cc(Cl)c(Cl)cc2o1)c1ncnn1-c1ncccn1 [Example I-016]	100	–	100	–	100	–	100	100	mortality at 500 g/ha (Tetranychus urticae): 90%
C[C@H](Nc1nc2cc(C(F)(F)F)c(Cl)cc2o1)c1ncnn1-c1ccc(C#N)cn1 [Example I-017]	100	100	100	100	100	100	100	100	mortality at 4 mg/m2 [2, 10]: 85 to 100%; mortality at 20 mg/m2 [2]: 90 to 100%; mortality at 4 ppm (Myzus persicae [3]): 90%; mortality at 4 mg/m2 [5, 10]: 85 to 100%; mortality at 20 mg/m2 [5]: 90 to 100%; mortality at 500 g/ha (Nezara viridula; 500 g/ha): 100%; mortality at 4 mg/m2 [8, 10]: 90 to 100%; mortality at 20 mg/m2 ([8]; surface concentration 20 mg/m^2, glazed tile): 90 to 100%
C[C@H](Nc1nc2cc(C3CC3)cc(Cl)c2o1)c1ncnn1-c1ncccc1F [Example I-067, 7-Chlor-5-cyclopropyl-N-{(1S)-1-[1-(3-fluorpyridin-2-yl)-1H-1,2,4-triazol-5-yl]ethyl}-1,3-benzoxazol-2-amin]	80	–	–	–	–	100	100	–	pest or weed control at 5 µg/cm2, 5 µg/cm2 (Rhipicephalus sanguineus): 80%; mortality at 100 ppm (Ctenocephalides felis [7]): 80%; mortality at 500 g/ha (Tetranychus urticae): 90%
C[C@H](Nc1nc2cc(OC(F)(F)F)c(Cl)cc2o1)c1ncnn1-c1ncc(Br)cn1 [Example I-085, N-{(1S)-1-[1-(5-Brompyrimidin-2-yl)-1H-1,2,4-triazol-5-yl]ethyl}-6-chlor-5(trifluormethoxy)-1,3-benzoxazol-2-amin]	–	100	–	100	100	–	–	100	mortality at 100 g/ha (Myzus persicae [9]; 100 g/ha): 90%; pest or weed control at 5 µg/cm2, 5 µg/cm2 (Rhipicephalus sanguineus): 100%; mortality at 100 g/ha (Nezara viridula; 100 g/ha): 100%; mortality at 100 g/ha (Tetranychus urticae; 100 g/ha): 90%
C[C@H](Nc1nc2cc(Cl)cc(C(F)(F)F)c2o1)c1ncnn1-c1ccc(C#N)cn1 [Example I-088, 6-{5-[(1S)-1-{[5-Chlor-7-(trifluormethyl)-1,3-benzoxazol-2-yl]amino}ethyl]-1H-1,2,4-triazol-1-yl}nicotinonitril]	100	–	83	–	100	–	–	–	activity (nematicidal activity, gall formation) (Meloidogyne incognita): 90%
Cc1nc([C@H](C)Nc2nc3cc(Cl)cc(C(F)(F)F)c3o2)n(-c2ccc(C#N)cn2)n1 [Example I-091, 6-{5-[(1S)-1-{[5-Chlor-7-(trifluormethyl)-1,3-benzoxazol-2-yl]amino}ethyl]-3-methyl-1H-1,2,4-triazol-1-yl)nicotinonitril]	–	–	–	–	90	–	100	–	mortality at 500 g/ha (Myzus persicae [9]; 500 g/ha): 90%; activity (nematicidal activity, gall formation) (Meloidogyne incognita): 90%
